Here are results for 29 compounds from patent US9079866B2, “Flap modulators” (JANSSEN PHARMACEUTICA NV, priority 2013, dated 2015).

Structures are written as SMILES. Structures can show the parent of a compound that is named as a salt. Where two headings read alike, the source gives them in different places.

One assay has as its target human FLAP (Homo sapiens (Human), UniProt P20292). The assay is described as follows: FLAP binding assay (HTRF format). Summed up: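 Binding of compounds to FLAP read out as HTRF ratio. Values are the mean of two assay plates, each sample run in duplicate per plate.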
A general note: TR-FRET usually uses a lanthanide donor and a delayed reading to cut background.

Assay [1] has as its system leukotriene pathway in human whole blood (LTB4 levels). The assay is described as follows: Human whole blood assay (A23187-stimulated LTB4). Format: cell-based. Conditions: Homo sapiens, read-out: LTB4 IC50 1:1. The essentials: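 Blood (heparin) diluted 1:1 RPMI; compound pre-incubation 15 min, 37° Celsius; A23187 7 μg/mL, 30 min, 37° Celsius; plasma LTB4 by commercial kit. IC50 via 4-parameter equation.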

The mark [2] stands for this setting: human FLAP wild type, HTRF format, average of two plates, duplicates.
Where [3] appears, read: human whole blood diluted 1:1 in RPMI, A23187-stimulated LTB4.
Where [4] appears, read: read-out: FLAP Binding wild type HTRF Ki.

human FLAP, sequence (P20292 whole entry): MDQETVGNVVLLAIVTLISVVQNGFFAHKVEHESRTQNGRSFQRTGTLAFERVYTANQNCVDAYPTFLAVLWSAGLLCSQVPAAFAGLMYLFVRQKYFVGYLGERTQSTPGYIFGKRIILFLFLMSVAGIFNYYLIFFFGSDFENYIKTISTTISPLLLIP

Turning to `Nc1cnc(-c2ccc(-c3ccccc3CSc3ccncn3)cc2F)cn1` [Example 243, 5-(3-Fluoro-2′-((pyrimidin-4-ylthio)methyl)-[1,1′-biphenyl]-4-yl)pyrazin-2-amine hydrochloride], the Ki – broadly, the dissociation constant of the complex between target and ligand, obtained from inhibition or displacement – on human FLAP (setting [2]) came to 3 nM. In addition, the IC50 – broadly, the concentration needed to halve the response being measured – in assay [1] (setting [3]) is 120 nM.
Turning to `C[Si](C)(C)CCOCSc1ccccc1-c1ccc(-c2cnc(N)cn2)c(F)c1` [Example 244, 5-[3-Fluoro-2′-({[2-(trimethylsilyl)ethoxy]methyl}sulfanyl)biphenyl-4-yl]pyrazin-2-amine], the Ki on human FLAP (setting [2]) was 29 nM. Further, the IC50 in assay [1] turned out to be 211 nM.
For the compound `C[Si](C)(C)CCOCS(=O)(=O)c1ccccc1-c1ccc(-c2cnc(N)cn2)c(F)c1` [Example 245, 5-[3-Fluoro-2′-({[2-(trimethylsilyl)ethoxy]methyl}sulfonyl)biphenyl-4-yl]pyrazin-2-amine hydrochloride], the inhibitory constant (Ki) at human FLAP (setting [4]) came out at 45 nM. Further, in assay [1], the half-inhibitory concentration (IC50) worked out at 233 nM.
Regarding `CS(=O)(=O)CCCS(=O)(=O)c1ccccc1-c1ccc(-c2cnc(N)cn2)c(F)c1` [Example 246, 5-(3-Fluoro-2′-{[3-(methylsulfonyl)propyl]sulfonyl}biphenyl-4-yl)pyrazin-2-amine hydrochloride], the Ki at human FLAP (setting [2]) was 199 nM. In assay [1] (setting [3]), the half-maximal inhibitory concentration (IC50) stood at 302 nM.
On the same counts, the results for `C[C@@H]1CNCCN1S(=O)(=O)c1ccccc1-c1ccc(-c2cnc(N)nc2)c(F)c1` [Example 247, 5-(3-Fluoro-2′-{[(2R)-2-methylpiperazin-1-yl]sulfonyl}biphenyl-4-yl)pyrimidin-2-amine] are 89 nM and 197 nM.
With `CC[C@@H](CO)NS(=O)(=O)c1ccccc1-c1ccc(-c2cnc(N)nc2)c(F)c1` [Example 248, 4′-(2-Aminopyrimidin-5-yl)-3′-fluoro-N-[(1S)-1-(hydroxymethyl)propyl]biphenyl-2-sulfonamide], affinity on human FLAP (setting [2]) was put at a Ki of 50 nM. Moreover, the IC50 in assay [1] (setting [3]) is 124 nM.
`N#CCCN(C1CC1)S(=O)(=O)c1ccccc1-c1ccc(-c2cnc(N)nc2)c(F)c1` [Example 249, 4′-(2-Aminopyrimidin-5-yl)-N-(2-cyanoethyl)-N-cyclopropyl-3′-fluorobiphenyl-2-sulfonamide] registered a Ki at human FLAP (setting [2]) of 59 nM. Moreover, the IC50 in assay [1] (setting [3]) was 94 nM.
For `N#CCCNS(=O)(=O)c1ccccc1-c1ccc(-c2cnc(N)nc2)c(F)c1` [Example 250, 4′-(2-Aminopyrimidin-5-yl)-N-(2-cyanoethyl)-3′-fluorobiphenyl-2-sulfonamide] the same measures were 38 nM and 77 nM.
On the same counts, the results for `CC(C)(CO)CNS(=O)(=O)c1ccccc1-c1ccc(-c2cnc(N)nc2)c(F)c1` [Example 251, 4′-(2-Aminopyrimidin-5-yl)-3′-fluoro-N-(3-hydroxy-2,2-dimethylpropyl)biphenyl-2-sulfonamide] are 5 nM and 68 nM.
At human FLAP (setting [2]), `C[C@H]1CNCCN1S(=O)(=O)c1ccccc1-c1ccc(-c2cnc(N)nc2)c(F)c1` [Example 253, 5-(3-Fluoro-2′-{[(2S)-2-methylpiperazin-1-yl]sulfonyl}biphenyl-4-yl)pyrimidin-2-amine] came in with an inhibition constant Ki of 134 nM. Besides, in assay [1] (setting [3]), the half-inhibitory concentration (IC50) was 191 nM.
As for `Nc1ncc(-c2ccc(-c3ccccc3S(=O)(=O)C3CC3)cc2F)cn1` [Example 254, 5-[2′-(Cyclopropylsulfonyl)-3-fluorobiphenyl-4-yl]pyrimidin-2-amine], at human FLAP (setting [2]), the inhibition constant (Ki) came to 80 nM. The IC50 in assay [1] (setting [3]) stood at 586 nM.
At human FLAP (setting [2]), `CN([C@H]1CCCNC1)S(=O)(=O)c1ccccc1-c1ccc(-c2cnc(N)nc2)c(F)c1` [Example 256, 4′-(2-Aminopyrimidin-5-yl)-3′-fluoro-N-methyl-N-[(3S)-piperidin-3-yl]biphenyl-2-sulfonamide] gave an inhibition constant (Ki) of 35 nM. For the same compound, the IC50 in assay [1] (setting [3]) came out at 73 nM.
On the same counts, the results for `CN([C@@H]1CCCNC1)S(=O)(=O)c1ccccc1-c1ccc(-c2cnc(N)nc2)c(F)c1` [Example 257, 4′-(2-Aminopyrimidin-5-yl)-3′-fluoro-N-methyl-N-[(3R)-piperidin-3-yl]biphenyl-2-sulfonamide] are 154 nM and 1120 nM.
Regarding `Nc1ncc(-c2ccc(-c3ccccc3S(=O)(=O)N3CCNC[C@@H]3CO)cc2F)cn1` [Example 258, [(2R)-1-{[4′-(2-Aminopyrimidin-5-yl)-3′-fluorobiphenyl-2-yl]sulfonyl}piperazin-2-yl]methanol], the Ki on human FLAP (setting [2]) was determined as 243 nM. In assay [1] (setting [3]), the concentration for half-maximal inhibition (IC50) was 202 nM.
On human FLAP (setting [2]), `CC(C)N(CCO)S(=O)(=O)c1ccccc1-c1ccc(-c2cnc(N)nc2)c(F)c1` [Example 261, 4′-(2-Aminopyrimidin-5-yl)-3′-fluoro-N-(2-hydroxyethyl)-N-(1-methylethyl)biphenyl-2-sulfonamide] gave an inhibition constant (Ki) of 6 nM. The IC50 in assay [1] (setting [3]) stood at 75 nM.
In turn, `Nc1ncc(-c2ccc(-c3ccccc3S(=O)(=O)N[C@H]3CC[C@H](O)CC3)cc2F)cn1` [Example 262, 4′-(2-Aminopyrimidin-5-yl)-3′-fluoro-N-(trans-4-hydroxycyclohexyl)biphenyl-2-sulfonamide] returned a Ki on human FLAP (setting [2]) of 18 nM. The IC50 in assay [1] (setting [3]) stood at 46 nM.
Turning to `Nc1ncc(-c2ccc(-c3ccccc3S(=O)(=O)N[C@H]3CCNC3=O)cc2F)cn1` [Example 263, 4′-(2-Aminopyrimidin-5-yl)-3′-fluoro-N-[(3S)-2-oxopyrrolidin-3-yl]biphenyl-2-sulfonamide], the inhibitory constant (Ki) at human FLAP (setting [2]) was 169 nM. Besides, the IC50 in assay [1] (setting [3]) worked out at 207 nM.
In the case of `Nc1ncc(-c2ccc(-c3ccccc3S(=O)(=O)N3CCS(=O)(=O)CC3)cc2F)cn1` [Example 264, 5-{2′-[(1,1-Dioxidothiomorpholin-4-yl)sulfonyl]-3-fluorobiphenyl-4-yl}pyrimidin-2-amine trifluoroacetic salt], the Ki at human FLAP (setting [2]) is 28 nM. In addition, the half-maximal inhibitory concentration (IC50) in assay [1] (setting [3]) was determined as 144 nM.
For `Nc1ncc(-c2ccc(-c3ccccc3S(=O)(=O)N3CC(O)C3)cc2F)cn1` [Example 265, 1-{[4′-(2-Aminopyrimidin-5-yl)-3′-fluorobiphenyl-2-yl]sulfonyl}azetidin-3-ol trifluoroacetic acid salt] the same measures were 45 nM and 160 nM.
With `Nc1ncc(-c2ccc(-c3ccccc3S(=O)(=O)N[C@@H]3CCCNC3=O)cc2F)cn1` [Example 266, 4′-(2-Aminopyrimidin-5-yl)-3′-fluoro-N-[(3R)-2-oxopiperidin-3-yl]biphenyl-2-sulfonamide trifluoroacetic acid salt], the inhibitory constant (Ki) at human FLAP (setting [4]) was 184 nM. In addition, the IC50 in assay [1] (setting [3]) turned out to be 464 nM.
On the same counts, the results for `Nc1ncc(-c2ccc(-c3ccccc3S(=O)(=O)N[C@H]3CCCNC3=O)cc2F)cn1` [Example 267, 4′-(2-Aminopyrimidin-5-yl)-3′-fluoro-N-[(3S)-2-oxopiperidin-3-yl]biphenyl-2-sulfonamide trifluoroacetic acid salt] are 154 nM and 350 nM.
For the compound `C[C@@H](NS(=O)(=O)c1ccccc1-c1ccc(-c2cnc(N)nc2)c(F)c1)C(F)(F)F` [Example 268, 4′-(2-Aminopyrimidin-5-yl)-3′-fluoro-N-[(1R)-2,2,2-trifluoro-1-methylethyl]biphenyl-2-sulfonamide trifluoroacetic acid salt], the Ki at human FLAP (setting [4]) came to 11 nM. Besides, the IC50 in assay [1] (setting [3]) was determined as 56 nM.
For `CC(C)(C)[C@H](CO)NS(=O)(=O)c1ccccc1-c1ccc(-c2cnc(N)nc2)c(F)c1` [Example 269, 4′-(2-Aminopyrimidin-5-yl)-3′-fluoro-N-[(1R)-1-(hydroxymethyl)-2,2-dimethylpropyl]biphenyl-2-sulfonamide trifluoroacetic acid salt] the same measures were 15 nM and 87 nM.
In the case of `CC(C)(C)[C@@H](CO)NS(=O)(=O)c1ccccc1-c1ccc(-c2cnc(N)nc2)c(F)c1` [Example 270, 4′-(2-Aminopyrimidin-5-yl)-3′-fluoro-N-[(1S)-1-(hydroxymethyl)-2,2-dimethylpropyl]biphenyl-2-sulfonamide trifluoroacetic acid salt], the Ki on human FLAP (setting [4]) was 57 nM. For the same compound, the IC50 in assay [1] (setting [3]) worked out at 1060 nM.
`CC(C)[C@@H](CO)NS(=O)(=O)c1ccccc1-c1ccc(-c2cnc(N)nc2)c(F)c1` [Example 271, 4′-(2-Aminopyrimidin-5-yl)-3′-fluoro-N-[(1S)-1-(hydroxymethyl)-2-methylpropyl]biphenyl-2-sulfonamide trifluoroacetic acid salt] had a Ki on human FLAP (setting [2]) of 51 nM. Besides, the IC50 in assay [1] (setting [3]) was 606 nM.
For the compound `CC(C)(O)CNS(=O)(=O)c1ccccc1-c1ccc(-c2cnc(N)nc2)c(F)c1` [Example 272, 4′-(2-Aminopyrimidin-5-yl)-3′-fluoro-N-(2-hydroxy-2-methylpropyl)biphenyl-2-sulfonamide trifluoroacetic acid salt], the Ki at human FLAP (setting [4]) was found to be 32 nM. Further, the IC50 in assay [1] (setting [3]) was 125 nM.
`CC(C)[C@H](CO)NS(=O)(=O)c1ccccc1-c1ccc(-c2cnc(N)nc2)c(F)c1` [Example 273, 4′-(2-Aminopyrimidin-5-yl)-3′-fluoro-N-[(1R)-1-(hydroxymethyl)-2-methylpropyl]biphenyl-2-sulfonamide trifluoroacetic acid salt] yielded an inhibitory constant (Ki) at human FLAP (setting [2]) of 9 nM. The IC50 in assay [1] (setting [3]) stood at 105 nM.
Consider `Nc1ncc(-c2ccc(-c3ccccc3S(=O)(=O)NCCO)cc2F)cn1` [Example 275, 4′-(2-Aminopyrimidin-5-yl)-3′-fluoro-N-(2-hydroxyethyl)biphenyl-2-sulfonamide trifluoroacetic acid salt], for which, on human FLAP (setting [4]), the Ki is 65 nM. The IC50 in assay [1] (setting [3]) is 192 nM.
As for `Nc1ncc(-c2ccc(-c3ccccc3S(=O)(=O)N3CCC[C@@H]3CO)cc2F)cn1` [Example 276, [(2R)-1-{[4′-(2-Aminopyrimidin-5-yl)-3′-fluorobiphenyl-2-yl]sulfonyl}pyrrolidin-2-yl]methanol trifluoroacetic acid salt], the Ki on human FLAP (setting [2]) was determined as 23 nM. The concentration for half-maximal inhibition (IC50) in assay [1] (setting [3]) was determined as 325 nM.
